Source: the RepoRT retention time repository (doi:10.1021/acs.analchem.2c02893)

Test: RP, Thermo Scientific Acclaim RSLC 120 C18, 100 × 2.1 mm, 2.2 µm, 30 °C, 0.2 mL/min, estimated dead time 1.1 min; A: 90% water + 10% methanol + 0.01% formic acid + 5 mM ammonium formate, pH 3.61; B: methanol + 0.01% formic acid + 5 mM ammonium formate, pH 3.61; gradient (min/%B) 0/1 1/1 2/39 13/99.9 15/99.9 15.1/1 20.1/1
Conditions: stereoisomer not certain

| Structure (SMILES) | LC retention time [min] |
| --- | --- |
| Cc1ccc(C(C)NC(=O)C(NC(=O)OC(C)C)C(C)C)cc1 (stereo not drawn) [Iprovalicarb] | 9.82 |
| CCCCC1=NC2(CCCC2)C(=O)N1Cc1ccc(-c2ccccc2-c2nn[nH]n2)cc1 [Irbesartan] | 9.44 |
| CSc1nc(N)nc(NC(C)(C)C)n1 [Irgarol-descyclopropyl] | 8.43 |
| CSc1nc(NC2CC2)nc(NC(C)(C)C)n1 [Irgarol] | 10.5 |
| CCOP(=S)(OCC)Oc1nc(Cl)n(C(C)C)n1 [Isazophos] | 9.87 |
| CC(CC(C#N)(c1ccccc1)C(C)C)N(C)C (stereo not drawn) [Isoaminile] | 5.96 |
| CC(C)CNC(=O)N1CCNC1=O [Isocarbamid (Azolamide)] | 5.74 |
| COP(N)(=S)Oc1ccccc1C(=O)OC(C)C (stereo not drawn) [Isocarbophos] | 8.32 |
| Clc1ccc(C(Cn2ccnc2)OCc2c(Cl)cccc2Cl)c(Cl)c1 (stereo not drawn) [Isoconazole] | 12.3 |
| COP(=S)(NC(C)C)Oc1ccccc1C(=O)OC(C)C (stereo not drawn) [Isofenphos-methyl] | 11.7 |
| CCOP(=S)(NC(C)C)Oc1ccccc1C(=O)OC(C)C (stereo not drawn) [Isofenphos] | 11.2 |
| NNC(=O)c1ccncc1 [Isoniazide] | 2.18 |
| CC1(C)CC(N)CC(C)(CN)C1 (stereo not drawn) [Isophorone diamine] | 1.67 |
| CNC(=O)Oc1ccccc1C(C)C [Isoprocarb] | 8.12 |
| CCCN(CCC)c1c([N+](=O)[O-])cc(C(C)C)cc1[N+](=O)[O-] [Isopropalin] | 13.2 |
| CC(C)c1ccc(NC(N)=O)cc1 [Isoproturon-didemethyl (1-(4-Isoprophenyl)urea)] | 7.76 |
| CC(C)c1ccc(NC(=O)N(C)C)cc1 [Isoproturon] | 8.32 |
| CC(CN1c2ccccc2Sc2cccnc21)N(C)C (stereo not drawn) [Isothipendyl] | 6.47 |
| CCC(C)(CC)c1cc(NC(=O)c2c(OC)cccc2OC)on1 [Isoxaben] | 9.42 |
| CCOC(=O)C1=NOC(c2ccccc2)(c2ccccc2)C1 [Isoxadifen-ethyl] | 10.7 |

| Structure (SMILES) | LC retention time [min] |
| --- | --- |
| CCOP(=S)(OCC)Oc1cc(-c2ccccc2)on1 [Isoxathion] | 11.3 |
| CC(COc1ccccc1)NC(C)C(O)c1ccc(O)cc1 (stereo not drawn) [Isoxsuprine] | 5.28 |
| COC(=O)C1=C(C)NC(C)=C(C(=O)OC(C)C)C1c1cccc2nonc12 (stereo not drawn) [Isradipine] | 9.61 |
| COc1cc2c(cc1OC)CC(=O)N(CCCN(C)CC1Cc3cc(OC)c(OC)cc31)CC2 (stereo not drawn) [Ivabradine] | 5.02 |
| CCC(C)C1OC2(CCC1C)CC1CC(CC=C(C)C(OC3CC(OC)C(OC4CC(OC)C(O)C(C)O4)C(C)O3)C(C)C=CC=C3COC4C(O)C(C)=CC(C(=O)O1)C34O)O2 (stereo not drawn) [Ivermectin B1a] | 14.4 |
| COC1CC(OC2C(C)OC(OC3C(C)=CCC4CC(CC5(CCC(C)C(C(C)C)O5)O4)OC(=O)C4C=C(C)C(O)C5OCC(=CC=CC3C)C45O)CC2OC)OC(C)C1O (stereo not drawn) [Ivermectin B1b] | 14.2 |
| CCCCCn1c(C)c(C(=O)c2cccc3ccccc23)c2ccccc21 [JWH-007] | 12.6 |
| CCCn1c(C)c(C(=O)c2cccc3ccccc23)c2ccccc21 [JWH-015] | 11.5 |
| CCCCCn1cc(C(=O)c2cccc3ccccc23)c2ccc(OC)cc21 [JWH-018-6-Methoxy-Ind] | 12.4 |
| CCCCCn1cc(C(=O)C23CC4CC(CC(C4)C2)C3)c2ccccc21 [JWH-018-Adamantoyl. AB-001] | 13.7 |
| CCCCCn1c(O)c(C(=O)c2cccc3ccccc23)c2ccccc21 [JWH-018-M-2-OH-Ind] | 14 |
| CCCCCn1cc(C(=O)c2cccc3ccccc23)c2c(O)cccc21 [JWH-018-M-4-OH-Ind] | 12.5 |
| CCCCCn1cc(C(=O)c2cccc3ccccc23)c2cc(O)ccc21 [JWH-018-M-5-OH-Ind] | 11.3 |
| CCCCCn1cc(C(=O)c2cccc3ccccc23)c2ccc(O)cc21 [JWH-018-M-6-OH-Ind] | 11.2 |
| CCCCCn1cc(C(=O)c2cccc3ccccc23)c2cccc(O)c21 [JWH-018-M-7-OH-Ind] | 11.8 |
| CC(O)CCCn1cc(C(=O)c2cccc3ccccc23)c2ccccc21 (stereo not drawn) [JWH-018-M-N-4-OH-Pentyl] | 10.1 |
| O=C(c1cccc2ccccc12)c1cn(CCCCCO)c2ccccc12 [JWH-018-M-N-5-OH-Pentyl] | 10 |
| O=C(O)CCCCn1cc(C(=O)c2cccc3ccccc23)c2ccccc21 [JWH-018-M-N-Pentanoic acid] | 9.71 |
| CCCCCn1cc(C(=O)c2cccc3ccccc23)c2ccccc21 [JWH-018] | 12.4 |
| CCCCCCn1cc(C(=O)c2cccc3ccccc23)c2ccccc21 [JWH-019] | 12.9 |

| Structure (SMILES) | LC retention time [min] |
| --- | --- |
| CCCCCCCn1cc(C(=O)c2cccc3ccccc23)c2ccccc21 [JWH-020] | 13.4 |
| CCCCn1cc(C(=O)c2cccc3ccc(C)cc23)c2ccccc21 [JWH-073-2-Methyl] | 12.3 |
| CCCCn1cc(C(=O)c2ccc(C)c3ccccc23)c2ccccc21 [JWH-073-4-Methyl] | 12.4 |
| CCCCn1c(O)c(C(=O)c2cccc3ccccc23)c2ccccc21 [JWH-073-M-2-OH-Ind] | 13.5 |
| CC(O)CCn1cc(C(=O)c2cccc3ccccc23)c2ccccc21 (stereo not drawn) [JWH-073-M-3-OH-Butyl] | 9.91 |
| O=C(c1cccc2ccccc12)c1cn(CCCCO)c2ccccc12 [JWH-073-M-4-OH-Butyl] | 9.56 |
| CCCCn1cc(C(=O)c2cccc3ccccc23)c2c(O)cccc21 [JWH-073-M-4-OH-Ind] | 12 |
| CCCCn1cc(C(=O)c2cccc3ccccc23)c2cc(O)ccc21 [JWH-073-M-5-OH-Ind] | 11.3 |
| CCCCn1cc(C(=O)c2cccc3ccccc23)c2ccc(O)cc21 [JWH-073-M-6-OH-Ind] | 10.6 |
| CCCCn1cc(C(=O)c2cccc3ccccc23)c2cccc(O)c21 [JWH-073-M-7-OH-Ind] | 11.2 |
| O=C(O)CCCn1cc(C(=O)c2cccc3ccccc23)c2ccccc21 [JWH-073-M-N-Butanoic acid] | 9.33 |
| CCCCn1cc(C(=O)c2cccc3ccccc23)c2ccccc21 [JWH-073] | 11.9 |
| CCCCCn1cc(C(=O)c2ccc(OC)c3ccccc23)c2ccccc21 [JWH-081] | 12.7 |
| Cc1ccc(C(=O)c2cn(CCCCCO)c3ccccc23)c2ccccc12 [JWH-122-M-N-5-OH-Pentyl] | 10.6 |
| CCCCCn1cc(C(=O)c2ccc(C)c3ccccc23)c2ccccc21 [JWH-122] | 12.9 |
| CCCCCCn1cc(C(=O)c2cccc3ccccc23)cc1-c1ccccc1 [JWH-147] | 13.3 |
| CCCc1ccc(C(=O)c2cn(CCC)c3ccccc23)c2ccccc12 [JWH-180] | 12.7 |
| O=C(c1cccc2ccccc12)c1cn(CCN2CCOCC2)c2cccc(O)c12 [JWH-200-M-4-OH-Ind] | 10.1 |
